Test system: P. yoelii 17 XNL sporozoites
Test: P. yoelii 17 XNL sporozoite challenge of AdPyCS-immunized mice
Assay type: in vivo, BALB/c mice
Settings: suboptimal AdPyCS IM; 200 μg IP days 1, 3, 5, 7; challenge day 12 with 100 sporozoites IV; AdPyCS alone 4.8 ± 0.6 days
Procedure: Sporozoite challenge experiments were performed, as described previously ([32]). Briefly, immunized mice were administered 100 live P. yoelii 17 XNL sporozoites IV via the tail vein. Parasitemia was monitored from days 3 to 10 after sporozoite challenge by detecting the presence of parasitized red blood cells in thin blood smears to assess complete protection against malaria. Briefly, a drop of blood was collected from the mouse tail vein for thin blood smears on pre-cleaned glass slides. Thin blood smears were fixed with absolute methanol and then stained with diluted Giemsa stain (1:20, v/v) (Sigma-Aldrich, St. Louis, MO) for 10 min. […]
Figure 2 LD01 increases antigen-specific CD8^+ T cell numbers following AdPyCS vaccination. (A) At day 12 post-AdPyCS immunization, immunogenicity was assessed by measuring the number of splenic PyCS-specific, IFN-γ-secreting CD8^+ T cells using the ELISpot assay after stimulation with the H-2kd restricted CD8 epitope SYVPSAEQI. Data are expressed as the mean ± SD. […] Significant differences between AdPyCS + control peptide and treated mice were determined using a one-way ANOVA multiple comparisons test and are denoted by *p < 0.05 and **p < 0.005. […] Data represent two independent experiments (n = 10/group/experiment) and are expressed as the mean percent protection. […]

OVA323−339 (KISQAVHAAHAEINEAG; UniProt P01012 323-339, looked up, fragment) [control peptide, control peptide used in AdPyCS vaccine studies]
time of patency: 4.7 ± 0.7 days

— PMC7363839, “A Peptide-Based PD1 Antagonist Enhances T-Cell Priming and Efficacy of a Prophylactic Malaria Vaccine and Promotes Survival in a Lethal Malaria Model” (Frontiers in Immunology, 2020)
